# Experimental data as given in paper PMC5607274, “An iterative compound screening contest method for identifying target protein inhibitors using the tyrosine-protein kinase Yes” (Scientific Reports, 2017).
# Molecular target: T1, human recombinant Yes [a.a. 2–543 (end)] (Homo sapiens, UniProt P07947)
# T1 construct: human recombinant Yes [a.a; 2–543 (end)]; purchased BPS Bioscience 40488
# Assay: ADP-Glo kinase assay, inhibition rates of Yes phosphorylation activity (first and second screening)
# Assay type: biochemical
# Conditions: first screening; mean of n = 4 wells; 10 μmol L−1 compound
# Outline: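 ADP-Glo luminescence measured inhibition of human recombinant Yes (a.a. 2–543) phosphorylation activity. In the first screen, each compound ran in 4 wells and inhibition rates were averaged. The second screen retested hits as compounds dissolved from fresh powder.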
# T1 sequence (P07947 2-543): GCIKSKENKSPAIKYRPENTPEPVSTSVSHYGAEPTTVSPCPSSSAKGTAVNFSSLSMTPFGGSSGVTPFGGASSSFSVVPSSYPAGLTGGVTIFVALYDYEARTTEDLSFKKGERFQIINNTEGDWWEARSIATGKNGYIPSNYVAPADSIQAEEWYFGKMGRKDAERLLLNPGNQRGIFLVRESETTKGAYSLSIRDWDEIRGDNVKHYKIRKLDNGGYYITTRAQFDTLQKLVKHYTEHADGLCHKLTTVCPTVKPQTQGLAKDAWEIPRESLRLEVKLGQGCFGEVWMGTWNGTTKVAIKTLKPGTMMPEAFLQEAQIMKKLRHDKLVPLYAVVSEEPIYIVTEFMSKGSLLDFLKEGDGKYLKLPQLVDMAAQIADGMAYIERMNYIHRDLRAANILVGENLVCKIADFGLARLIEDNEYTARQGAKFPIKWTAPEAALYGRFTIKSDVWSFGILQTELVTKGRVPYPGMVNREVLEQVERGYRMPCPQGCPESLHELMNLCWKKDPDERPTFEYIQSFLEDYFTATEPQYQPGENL
row,Structure (SMILES),First screening IR (inhibition rate) [%]
1,CCN1CCN(Cc2ccc(NC(=O)C3CCCN3C(=O)c3ccc4ccccc4c3O)cc2)CC1 (stereo not drawn) [Compound Z992207680],51
2,Cc1nn(CC(C)C)c2sc(C(=O)N3c4ccccc4C[C@H]3C(N)=O)cc12 [Compound Z996487836],1
3,O=C(c1cccn1Cc1ccncc1)N1CCOC(c2ccc(F)cc2)C1 (stereo not drawn) [Compound Z998371530],13
4,Cc1nc(NC(=O)c2cccc(NC(N)=O)c2)sc1SCC#N [Compound Z1000171966],-2
5,CC1(C)CN(S(=O)(=O)C2CS(=O)(=O)c3ccccc32)CCO1 (stereo not drawn) [Compound Z1031114832],-4
6,CC(C)CNC(=O)c1c(N)n(CCc2ccccc2)c2nc3ccccc3nc12 [Compound Z1033301058],-2
7,Cc1nc(-c2ccc(Br)cc2)nc(NCCO)c1C [Compound Z1037335626],13
8,CCN(CC)C(=O)c1ccc(NS(=O)(=O)c2cc3c(cc2Cl)NC(=O)C3)cc1 [Compound Z1037385644],-4
9,N#Cc1cnc(NCCC(=O)N2CCc3sccc3C2)c(Cl)c1 [Compound Z1039090738],2
10,Cc1nc2n(n1)CC(NCc1cn[nH]c1-c1ccc(C)o1)CC2 (stereo not drawn) [Compound Z1051950052],20
11,Cn1cc(NC(=O)C2(c3cccc(C(F)(F)F)c3)CC2)cn1 [Compound Z1068296272],25
12,Cc1cccc(-c2nc(C(C)C)no2)c1NC(=O)CCc1ccccc1 [Compound Z1082320758],4
13,CCOCCCn1c(NC(=O)c2ccc3c(c2)CCN3C(C)=O)nc2ccccc21 [Compound Z1090594860],-9
14,c1cncc(-c2nc(SCc3nc4ccccc4o3)n[nH]2)c1 [Compound Z1095448120],-2
15,Cc1nc(-c2cc(C(=O)N3CCCC(n4ccnc4)C3)co2)cs1 (stereo not drawn) [Compound Z1102775620],-5
16,COCCN(CCC#N)S(=O)(=O)c1ccccc1S(C)(=O)=O [Compound Z1116705979],42
17,COc1ccc(-c2n[nH]c(CNC(=O)C3=NN(C)C(=O)CC3)n2)cc1 [Compound Z1119644111],4
18,CC(C)c1nnc(CNC(C)(C)c2ccc(Cl)cc2)o1 [Compound Z1120830695],17

row,Structure (SMILES),First screening IR (inhibition rate) [%]
1,CN(C)C(=O)Sc1ccc(NC(=O)COc2ccc(F)cc2)cc1 [Compound Z1126778415],-17
2,Cc1cccc(OCC(=O)Nc2ccc(SC(=O)N(C)C)cc2)c1 [Compound Z1126778839],-6
3,Cc1cc(N(Cc2cn3ccsc3n2)C(C)C)ccc1C(N)=O [Compound Z1127155490],-7
4,O=C(CCN1CCCC1=O)Nc1ccc(Oc2ccc(F)cc2)cn1 [Compound Z1129155203],-12
5,CNc1snc(C)c1C(=O)NC(C)c1sc(-c2ccc(F)cc2)nc1C (stereo not drawn) [Compound Z1129440199],29
6,Oc1c(Br)cccc1CNCc1ncc(-c2ccccc2)o1 [Compound Z1135283259],-4
7,N#Cc1cccc(C(=O)NCc2nc(-c3ccc(F)cc3)n[nH]2)c1 [Compound Z1137567528],55
8,Cn1ncc2c(N3CCOC(Cn4cccn4)C3)ncnc21 (stereo not drawn) [Compound Z1139215576],18
9,Cc1nc(C)n(C2CCCN(C(=O)CCn3ccnc3)C2)n1 (stereo not drawn) [Compound Z1139343408],0
10,CCc1nnc2n1CCN(CC(=O)NC1CCCc3ccccc31)C2 (stereo not drawn) [Compound Z1139436344],-6
11,Cn1cc(CNC2CCc3ncnn3C2)c(-c2ccncc2)n1 (stereo not drawn) [Compound Z1139562831],22
12,Cc1cccc(-c2[nH]ncc2CNC(C)C(C)n2cccn2)c1 (stereo not drawn) [Compound Z1143064210],-7
13,Cc1cc(S(C)(=O)=O)c(C)c(S(=O)(=O)N2CCCCCC2)c1 [Compound Z1145185709],6
14,Cc1cc(S(C)(=O)=O)c(C)c(S(=O)(=O)N2CCCC(C)C2)c1 (stereo not drawn) [Compound Z1145185785],14
15,CCN(CCC#N)S(=O)(=O)c1cc(C)cc(S(C)(=O)=O)c1C [Compound Z1145197816],-2
16,CN(C)S(=O)(=O)c1ccc(CS(=O)(=O)C2CCCC2)o1 [Compound Z1147565999],-1
17,CCC(C)NC(=O)c1ccc2c(=O)n(CC(C)C)c3nnc(SCC(=O)Nc4cccc(C)c4)n3c2c1 (stereo not drawn) [Compound Z1157725046],0
18,CCSc1cncc(N2CCC(C(=O)NC(C)C(C)C)CC2)n1 (stereo not drawn) [Compound Z1168201963],4

# Further lines, results first:
row,First screening IR (inhibition rate) [%],Structure (SMILES)
1,1,Cc1ccnc(NC(=O)C2CCN(c3ccc(C#N)cc3F)CC2)c1 [Compound Z1002220042]
2,-1,COc1ccc(-c2c(C#N)c(=O)[nH]c3c2c(C)nn3-c2ccccc2)cc1OC [Compound Z1007027518]
3,0,Cc1cc(C)c2c(c1)C(O)(CC(=O)c1ccccc1)C(=O)N2 (stereo not drawn) [Compound Z1013750782]
4,13,FC(F)(F)c1ccnc(Nc2ccc(NC3CCOCC3)cc2)n1 [Compound Z1021076320]
5,0,O=C(O)c1cnc(/C=C/c2cccnc2)s1 [Compound Z1021595256]
6,5,CNC(=O)c1cnc(/C=C/c2cccnc2)s1 [Compound Z1029489284]
7,8,CCN1CCN(S(=O)(=O)C2CS(=O)(=O)c3ccccc32)CC1 (stereo not drawn) [Compound Z1031094372]
8,2,CC1CN(CC2CCN(CC(=O)Nc3cc(Cl)ccc3Cl)CC2)CC(C)O1 (stereo not drawn) [Compound Z1033314424]
9,3,Cc1ccc(C(=O)Nc2cc(C(=O)N3CCCCC3)ccc2Cl)o1 [Compound Z1037939812]
10,2,NC(=O)N1CCC(C(=O)N2CCCC2CC2CC3CCC2C3)CC1 (stereo not drawn) [Compound Z1038829842]
11,0,N#Cc1cnc(N2CCN(S(=O)(=O)c3cc(Cl)ccc3Cl)CC2)c(Cl)c1 [Compound Z1039059796]
12,2,Cc1oc(-c2ccsc2)nc1CC(=O)Nc1cc(C(N)=O)n(C)c1 [Compound Z1039455578]
13,-8,Cn1ccc2c(NC(=O)NCc3ccnc(N4CCCC4)c3)cccc21 [Compound Z1040576806]
14,-5,CN(C)C(=O)Cn1cc(NC(=O)c2ccc3cc[nH]c3c2)cn1 [Compound Z1067269008]
15,56,c1cc(-c2nc3c(c(N4CCCC(N5CCCC5)C4)n2)CCC3)ccn1 (stereo not drawn) [Compound Z1070397714]
16,8,CCN(CC)S(=O)(=O)c1ccc(N2CCC(NC(C)C)CC2)c([N+](=O)[O-])c1 [Compound Z1082766798]
17,-7,CCN(c1cccnc1)S(=O)(=O)c1cc(S(C)(=O)=O)ccc1Cl [Compound Z1082836308]
18,-4,CN(C1CCCCC1)S(=O)(=O)N1CCS(=O)(=O)CC1 [Compound Z1082836720]

row,First screening IR (inhibition rate) [%],Structure (SMILES)
1,10,Cc1cccc(=O)n1CCCCNc1cnc2ccccc2n1 [Compound Z1084012684]
2,-4,CC1CCCN(Cc2ccc(CNCC3CNc4ccnn4C3)cc2)C1 (stereo not drawn) [Compound Z1097879141]
3,-6,CCN(CCC#N)S(=O)(=O)c1cccc(S(C)(=O)=O)c1 [Compound Z1116704440]
4,43,CCN1CCCN(S(=O)(=O)c2ccccc2S(C)(=O)=O)CC1 [Compound Z1127188257]
5,12,Cc1ccc(C)c(CS(=O)(=O)CCCS(=O)(=O)N(C)C)c1 [Compound Z1127660495]
6,6,CN(C)S(=O)(=O)CCCS(=O)(=O)Cc1cccc(F)c1 [Compound Z1127660834]
7,-4,CN(C)S(=O)(=O)CCCS(=O)(=O)Cc1ccc(Cl)cc1 [Compound Z1127660880]
8,4,O=C(Nc1n[nH]c(-c2ccccn2)n1)c1ccc(-n2cccn2)c(F)c1 [Compound Z1128365659]
9,1,CC(C)(C)OC(=O)N1CCCc2cc(NC(=O)c3cnc[nH]3)ccc21 [Compound Z1131596340]
10,-1,Cc1ccc(S(=O)(=O)CCCS(=O)(=O)N(C)C)c(C)c1 [Compound Z1134191614]
11,22,CN(C)S(=O)(=O)CCCS(=O)(=O)c1nccn1C [Compound Z1134191724]
12,-5,CC(C)c1nc2n(n1)CC(NCc1cc(-c3cccs3)on1)CC2 (stereo not drawn) [Compound Z1139411735]
13,3,CSc1sc(NC(=O)c2n[nH]c(C(C)C)c2Br)nc1C [Compound Z1143428685]
14,4,C=CCN(CC=C)S(=O)(=O)c1cc(C)cc(S(C)(=O)=O)c1C [Compound Z1145185872]
15,-8,CCC(C)NC(=O)c1ccc2c(=O)n(CC(C)C)c3nnc(SCC(=O)Nc4ccccc4C)n3c2c1 (stereo not drawn) [Compound Z1157725045]
16,-1,O=C(CCc1nnc2n(Cc3ccc(Cl)cc3)c(=O)c3ccccc3n12)NCCCN1CCOCC1 [Compound Z1157834172]
17,-8,CCC(Sc1nc2ccccc2c2nc(CCN3CCCCC3)nn12)C(=O)Nc1ccc2c(c1)OCO2 (stereo not drawn) [Compound Z1157834229]
18,13,CC(C)NC(=O)N1CCCCCC1C1CCN(c2ncc(C(N)=O)cc2Cl)CC1 (stereo not drawn) [Compound Z1168219830]
